The values below come from patent US9856264B2, “Isoquinolinesulfonyl derivative as RHO kinase inhibitor” (MEDSHINE DISCOVERY INC., priority 2014, dated 2018).

Usually pIC50 stands for the negative decadic logarithm of the IC50, by convention in mol/L.

pIC50: −log10 of the molar value.

For the assay, the target named is ROCK kinase. Kind of assay: In vitro ROCK kinase inhibition activity evaluation (33P-ATP filter-binding). Particulars: 1 nM ROCK kinase, 20 μM Long S6 Kinase substrate peptide, 2 h room temperature. Also on record: key to ROCK inhibition activity: 1 μM ≦ + < 5 μM; 0.1 μM ≦ ++ < 1 μM; +++ < 0.1 μM; −− N/A. In kind it is biochemical. The protocol:
Biological Activity Experiment: In Vitro ROCK Kinase Inhibition Activity Evaluation
Experimental Objective: Test ROCK Inhibition IC50 Value of Invented Compounds
Buffer solution: 20 mM Hepes (pH 7.5), 10 mM MgCl2, 1 mM EGTA, 0.02% Brij35, 0.02 mg/ml BSA, 0.1 mM Na3VO4, 2 mM DTT, 1% DMSO
To a freshly prepared buffer solution was added ROCK substrate Long S6 Kinase substrate peptide, with concentration at 20 μM. 1 nM ROCK kinase was then added, and well stirred. A series of DMSO solution (starting from 10 μM, dilution factor 3) of testing article was added using Echo550. The mixture was incubated for 20 min at room temperature, then was added ^33P-ATP (radioactive intensity 10 μCi/μL) to initiate reaction and further reacted for 2 h at room temperature. The mixture was filtered through P81 ion exchange paper (Whatman #3698-915), and washed by 0.75% phosphoric acid. The intensity of radiation was measured by Filter-Binding method.
The inhibition activity of the testing articles were measured by comparing the residue kinase activity to blank substrate (pure DMSO). Using Prism software ((GraphPad Software, San Diego Calif., USA) to calculate IC50 and curve.
As for `O=S(=O)(c1cccc2cncc(Cl)c12)N1C[C@@H]2CCN[C@@H]2C1` (stereo in doubt) [Example 17, 4-chloro-5-((hexahydropyrrolo[3,4-b]pyrrol-5 (1H)-yl)sulfonyl)isoquinoline], the pIC50 is 6.00 to 7.00.
For the compound `O=S(=O)(c1cccc2cncc(C(F)F)c12)N1C[C@H]2CNC[C@H]2C1` [Example 35, 4-(difluoromethyl)-5-((hexahydropyrrolo[3,4-c]pyrrol-2(1H)-yl)sulfonyl)isoquinoline], the ROCK inhibition activity result is reported as “−−”.
`O=S(=O)(c1cccc2cnccc12)N1CCC2NCCCCC21` (stereo not shown) [Example 14, 1-(isoquinolin-5-ylsulfonyl)decahydropyrrolo[3,2-b]azepine]: the pIC50 was 6.00 to 7.00.
Turning to `O=S(=O)(c1cccc2cncc(F)c12)N1C[C@H]2CN[C@H]2C1` (stereo in doubt) [Example 27, 5-(3,6-diazabicyclo[3.2.0]heptan-3-ylsulfonyl)-4-fluoroisoquinoline], the pIC50 is 6.00 to 7.00.
With `O=S(=O)(c1cccc2cncc(F)c12)N1CC[C@@H]2NCC[C@@H]21` (stereo in doubt) [Example 24, 4-fluoro-5-((hexahydropyrrolo[3,2-b]pyrrol-1(2H)-yl)sulfonyl)isoquinoline], the pIC50 was 5.30 to 6.00.
With `O=S(=O)(c1cccc2cncc(C(F)F)c12)N1C[C@H]2CCCN[C@H]2C1` (stereo in doubt) [Example 33, 4-(difluoromethyl)-5-((hexahydro-1H-pyrrolo[3,4-b]pyridin-6(2H)-yl)sulfonyl)isoquinoline], the ROCK inhibition activity entry was “−−”.
Turning to `O=S(=O)(c1cccc2cncc(Cl)c12)N1CCC2NCCCC2C1` (stereo not shown) [Example 20, 6-((4-chloroisoquinolin-5-yl)sulfonyl)decahydro-1,6-naphthyridine], the pIC50 was 6.00 to 7.00.
`Cc1cnc(O)c2cccc(S(=O)(=O)N3C[C@@H]4CCN[C@@H]4C3)c12` (stereo in doubt) [Example 39, 5-((hexahydropyrrolo[3,4-b]pyrrol-5(1H)-yl)sulfonyl)-4-methylisoquinolin-1-ol]: the pIC50 was 6.00 to 7.00.
For the compound `COc1cncc2cccc(S(=O)(=O)N3C[C@@H]4CCN[C@@H]4C3)c12` (stereo in doubt) [Example 48, 5-((hexahydropyrrolo[3,4-b]pyrrol-5 (1H)-yl)sulfonyl)-4-methoxyisoquinoline], the pIC50 is 5.30 to 6.00.
Same read-out and setting: the result for `O=S(=O)(c1cccc2cnccc12)N1C[C@H]2CNC[C@H]2C1` [Example 7, 5-((hexahydropyrrolo[3,4-c]pyrrol-2(1H)-yl)sulfonyl)isoquinoline] reads 6.00 to 7.00; that for `Cc1cncc2cccc(S(=O)(=O)N3CCC4NCCCC43)c12` (stereo not shown) [Example 42, 4-methyl-5-((octahydro-1H-pyrrolo[3,2-b]pyridin-1-yl)sulfonyl)isoquinoline], above 7.00.
As for `O=S(=O)(c1cccc2cncc(C(F)F)c12)N1C[C@H]2CN[C@H]2C1` (stereo in doubt) [Example 34, 5-(3,6-diazabicyclo[3.2.0]heptan-3-ylsulfonyl)-4-(difluoromethyl)isoquinoline], the ROCK inhibition activity entry is given as “−−”.
Consider `O=S(=O)(c1cccc2cnccc12)N1CCC2NCCCC21` (stereo not shown) [Example 6, 5-((octahydro-1H-pyrrolo[3,2-b]pyridin-1-yl)sulfonyl)isoquinoline], for which the negative-log IC50 (pIC50) is 6.00 to 7.00.
The same measure, in the same setting: the result for `NC12CC1CN(S(=O)(=O)c1cccc3cnccc13)C2` (stereo not shown) [Example 56, 3-(isoquinolin-5-ylsulfonyl)-3-azabicyclo[3.1.0]hexan-1-amine] reads 6.00 to 7.00.
For `Cc1cncc2cccc(S(=O)(=O)N3C[C@H]4CNC[C@H]4C3)c12` [Example 43, 5-((hexahydropyrrolo[3,4-c]pyrrol-2(1H)-yl)sulfonyl)-4-methylisoquinoline], the pIC50 is above 7.00.
On the same count and under the same terms, the result for `O=S(=O)(c1cccc2cnccc12)N1CCC2NCCCC2C1` (stereo not shown) [Example 5, 6-(isoquinolin-5-ylsulfonyl)decahydro-1,6-naphthyridine] reads 6.00 to 7.00.
Take `CCNC1CN(S(=O)(=O)c2cccc3cnccc23)CC12CC2` (stereo not shown) [Example 11, N-ethyl-5-(isoquinolin-5-ylsulfonyl)-5-azaspiro[2.4]heptan-7-amine]: the ROCK inhibition activity entry is reported as “−−”.
As for `COc1cncc2cccc(S(=O)(=O)N3CC4CCNCC4C3)c12` (stereo not shown) [Example 53, 5-((hexahydro-1H-pyrrolo[3,4-c]pyridin-2(3H)-yl)sulfonyl)-4-methoxyisoquinoline], the pIC50 was 5.30 to 6.00.
The same measure, in the same setting: to `O=S(=O)(c1cccc2cncc(Cl)c12)N1C[C@H]2CN[C@H]2C1` (stereo in doubt) [Example 19, 5-(3,6-diazabicyclo[3.2.0]heptan-3-ylsulfonyl)-4-chloroisoquinoline] belongs above 7.00.
The same measure, in the same setting: the result for `Cc1cncc2cccc(S(=O)(=O)N3CC[C@@H]4NCC[C@@H]43)c12` (stereo in doubt) [Example 37, 5-((hexahydropyrrolo[3,2-b]pyrrol-1(2H)-yl)sulfonyl)-4-methylisoquinoline] reads 6.00 to 7.00.
Regarding `COc1cncc2cccc(S(=O)(=O)N3CCC4NCCCC4C3)c12` (stereo not shown) [Example 54, 6-((4-methoxyisoquinolin-5-yl)sulfonyl)decahydro-1,6-naphthyridine], the pIC50 was 5.30 to 6.00.
In the case of `O=S(=O)(c1cccc2cncc(C(F)F)c12)N1CC2CCNCC2C1` (stereo not shown) [Example 36, 4-(difluoromethyl)-5-((hexahydro-1H-pyrrolo[3,4-c]pyridin-2(3H)-yl)sulfonyl)isoquinoline], the ROCK inhibition activity entry is given as “−−”.
For `O=S(=O)(c1cccc2cncc(Cl)c12)N1CC[C@@H]2NCC[C@@H]21` (stereo in doubt) [Example 16, 4-chloro-5-((hexahydropyrrolo[3,2-b]pyrrol-1(2H)-yl)sulfonyl)isoquinoline], the pIC50 was 6.00 to 7.00.
As for `O=S(=O)(c1cccc2cncc(Cl)c12)N1C[C@H]2CNC[C@H]2C1` [Example 22, 4-chloro-5-((hexahydropyrrolo[3,4-c]pyrrol-2(1H)-yl)sulfonyl)isoquinoline], the pIC50 is 6.00 to 7.00.
`COc1cncc2cccc(S(=O)(=O)N3CC[C@@H]4NCC[C@@H]43)c12` (stereo in doubt) [Example 47, 5-((hexahydropyrrolo[3,2-b]pyrrol-1(2H)-yl)sulfonyl)-4-methoxyisoquinoline]: the pIC50 was 5.30 to 6.00.
On the same count and under the same terms, to `O=S(=O)(c1cccc2cnccc12)N1CC2CCNCC2C1` (stereo not shown) [Example 8, 5-((hexahydro-1H-pyrrolo[3,4-c]pyridin-2(3H)-yl)sulfonyl)isoquinoline] belongs 6.00 to 7.00; to `Cc1cncc2cccc(S(=O)(=O)N3C[C@H]4CCCN[C@H]4C3)c12` (stereo in doubt) [Example 40, 5-((hexahydro-1H-pyrrolo[3,4-b]pyridin-6(2H)-yl)sulfonyl)-4-methylisoquinoline], above 7.00; to `O=S(=O)(c1cccc2cnccc12)N1C[C@@H]2CCN[C@@H]2C1` (stereo in doubt) [Example 2, 5-((hexahydropyrrolo[3,4-b]pyrrol-5(1H)-yl)sulfonyl)isoquinoline], 6.00 to 7.00.
On the same count and under the same terms, to `COc1cncc2cccc(S(=O)(=O)N3C[C@H]4CNC[C@H]4C3)c12` [Example 52, 5-((hexahydropyrrolo[3,4-c]pyrrol-2(1H)-yl)sulfonyl)-4-methoxyisoquinoline] belongs 5.30 to 6.00.
Turning to `O=S(=O)(c1cccc2cnccc12)N1CC[C@@H]2NCC[C@@H]21` (stereo in doubt) [Example 1, 5-((hexahydropyrrolo[3,2-b]pyrrol-1(2H)-yl)sulfonyl)isoquinoline], the pIC50 was 6.00 to 7.00.
For the compound `COc1cncc2cccc(S(=O)(=O)N3C[C@H]4CN[C@H]4C3)c12` (stereo in doubt) [Example 50, 5-(3,6-diazabicyclo[3.2.0]heptan-3-ylsulfonyl)-4-methoxyisoquinoline], the pIC50 is 5.30 to 6.00.
On the same count and under the same terms, the result for `O=S(=O)(c1cccc2cnccc12)N1C[C@H]2CCCN[C@H]2C1` (stereo in doubt) [Example 3, 5-((hexahydro-1H-pyrrolo[3,4-b]pyridin-6(2H)-yl)sulfonyl)isoquinoline] reads 6.00 to 7.00; that for `COc1cncc2cccc(S(=O)(=O)N3C[C@H]4CCCN[C@H]4C3)c12` (stereo in doubt) [Example 49, 5-((hexahydro-1H-pyrrolo[3,4-b]pyridin-6(2H)-yl)sulfonyl)-4-methoxyisoquinoline], 5.30 to 6.00; that for `O=S(=O)(c1cccc2cncc(Cl)c12)N1C[C@H]2CCCN[C@H]2C1` (stereo in doubt) [Example 18, 4-chloro-5-((hexahydro-1H-pyrrolo[3,4-b]pyridin-6(2H)-yl)sulfonyl)isoquinoline], 6.00 to 7.00.
With `Cc1cncc2cccc(S(=O)(=O)N3C[C@H]4CN[C@H]4C3)c12` (stereo in doubt) [Example 41, 5-(3,6-diazabicyclo[3.2.0]heptan-3-ylsulfonyl)-4-methylisoquinoline], the negative logarithm of the IC50 (pIC50) was above 7.00.
On the same count and under the same terms, the result for `Cc1cncc2cccc(S(=O)(=O)N3C[C@@H]4CCN[C@@H]4C3)c12` [Example 38, 5-((hexahydropyrrolo[3,4-d]pyrrol-5 (1H)-yl)sulfonyl)-4-methylisoquinoline] reads above 7.00; that for `O=S(=O)(c1cccc2cncc(F)c12)N1C[C@H]2CCCN[C@H]2C1` (stereo in doubt) [Example 26, 4-fluoro-5-((hexahydro-1H-pyrrolo[3,4-b]pyridin-6(2H)-yl)sulfonyl)isoquinoline], 6.00 to 7.00.
